From patent publication US11478471B2, “Methods and compositions for treating diabetes, metabolic syndrome and other conditions” (priority 2005, dated 2022)
Values after ≈ are worked out from the molar mass of the structure shown. Read-outs that look alike come from different tables or passages of the source.

Experiments:
[1] = tested on: plasma corticosterone; test: Plasma corticosterone in rats after oral dosing (ELISA); assay type: in vivo, Sprague Dawley rats; conditions: for Corticosteroid Levels (mean ± SEM): 4 h after gavage
Method: To generate the results shown in FIG. 1, five groups (eight per group) of rats were used. The rats were maintained on a 14/10 hour light/dark cycle and allowed free access to food and water. Each rat was dosed (200 mg drug/kg body weight) via a gastric tube. […] All of the rats were dosed between 2.00 and 3.00 pm and were sacrificed four hours later (between 6.00 and 7.00 pm). Plasma was prepared and the concentration of corticosterone determined by an enzyme linked immuno assay (ELISA). In rats, the predominant active glucocorticoid is corticosterone; in humans, the predominant active glucucorticoid is the closely related molecule cortisol.
The rats were maintained and dosed as described above. Plasma was prepared and the concentration of corticosterone in the plasma determined by ELISA.
The rats were maintained as described above; the drugs were suspended in olive oil, and each rat was dosed once via gastric tube to achieve a dose of 200 mg/kg. All of the rats were dosed at a specific time so that all terminations occurred between 6 and 7 pm. […] Following sacrifice, plasma was prepared, and the concentration of corticosterone in the plasma was determined by ELISA. In the same plasma samples, total cholesterol levels were also determined.
In the Table, corticosterone levels (mean±SEM; ng/mL) were determined four hours after oral gavage of the indicated drug (N=10/group). There was a single control group (dosed with vehicle).
Corticosterone levels (mean±SEM; ng/mL) were determined at the indicated times after oral gavage of the indicated drug at 200 mg/kg. […] The means of the vehicle treated groups are used as the time zero control point.

[2] = tested on: Candida guilliermondii; test: Antifungal MIC; assay type: cell-based; conditions: Meyerozyma guilliermondii, DSM11947; DSM strain 11947, 48 h
[3] = tested on: Candida kefyr; test: Antifungal MIC; assay type: cell-based; conditions: Kluyveromyces marxianus, DSM11954; DSM strain 11954, 48 h
[4] = tested on: Candida tropicalis; test: Antifungal MIC; assay type: cell-based
[5] = tested on: Issatchenkia orientalis; test: Antifungal MIC; assay type: cell-based; conditions: Pichia kudriavzevii
[6] = read-out: Cmax of unmetabolized ketoconazole; humans, 400 mg dose; cited from earlier work
[7] = SBA for NDA 18-533; cited from earlier work
[8] = dog, in vivo, 40 mg/kg
Method: As a control, a separate set of 2 male and 2 female dogs was treated with vehicle.

[9] = dog, in vivo, po, 40 mg/kg/day
[10] = tested on: P450 3A; conditions: read-out: IC50, progesterone 6β hydroxylase (3A); Rotstein et al. 1992; cited from earlier work
[11] = tested on: P450 2B1, 2B2, 1A1, 2C11, 3A; conditions: read-out: IC50, progesterone 16α hydroxylase (2B1, 2B2, 1A1, 2C11, 3A); Rotstein et al. 1992; cited from earlier work
[12] = tested on: P450 4A; conditions: read-out: IC50, lauric acid hydroxylase (4A); Rotstein et al. 1992; cited from earlier work
[13] = tested on: Salmonella typhimurium; test: Ames assay; conditions: five histidine requiring strains
[14] = cited from earlier work; for AUC 0-12 / Cmax / T ½: humans
[15] = tested on: mouse L5178Y lymphoma cells; test: Mouse lymphoma assay, thymidine kinase locus; conditions: with and without S-9, up to toxic doses
[16] = tested on: CYP7A (cholesterol 7α hydroxylase); test: Inhibition of CYP7A, cholesterol 7α-hydroxylase activity (Rotstein et al. 1992); conditions: assuming intrahepatic concentration approximately 20% of total plasma concentration
[17] = following fifth 200 mg dose of racemic ketoconazole (every twelve hours)
[18] = following first 200 mg dose of racemic ketoconazole
[19] = normal volunteers, 200 mg dose of the racemic mixture

CC(=O)N1CCN(c2ccc(OCC3COC(Cn4ccnc4)(c4ccc(Cl)cc4Cl)O3)cc2)CC1 (racemic) [Racemic ketoconazole, 1-acetyl-4-[4-[[2-(2,4-dichlorophenyl)-2-[(1H-imidazol-1-yl)-methyl]-1,3-dioxolan-4-yl]methoxy]phenyl]piperazine]
efficacy at lowering corticosterone, time course (FIG. 3) ([1]; 200 mg/kg oral, up to 24 hours): intermediate between the two enantiomers | Corticosteroid Levels (mean ± SEM) ([1]; single oral 50 mg/kg): 215 ± 20.7 ng/mL | Corticosteroid Levels (mean ± SEM) ([1]; single oral 100 mg/kg): 210 ± 15.5 ng/mL | Corticosteroid Levels (mean ± SEM), time course ([1]; single oral 200 mg/kg, 4 h): 134 ± 10 ng/mL | Corticosteroid Levels (mean ± SEM) ([1]; single oral 200 mg/kg): 135 ± 13.7 ng/mL | Corticosteroid Levels (mean ± SEM), time course ([1]; single oral 200 mg/kg, 8 h): 163 ± 11 ng/mL | Corticosteroid Levels (mean ± SEM), time course ([1]; single oral 200 mg/kg, 12 h): 153 ± 14 ng/mL | Corticosteroid Levels (mean ± SEM), time course ([1]; single oral 200 mg/kg, 16 h): 132 ± 6 ng/mL | Corticosteroid Levels (mean ± SEM), time course ([1]; single oral 200 mg/kg, 20 h): 147 ± 17 ng/mL | Corticosteroid Levels (mean ± SEM), time course ([1]; single oral 200 mg/kg, 24 h): 151 ± 14 ng/mL | Corticosteroid Levels (mean ± SEM) ([1]; single oral 400 mg/kg): 113 ± 6.6 ng/mL | Corticosteroid Levels (mean ± SEM) ([1]; single oral 600 mg/kg): 115 ± 14.3 ng/mL | MIC [2]: 0.125 µg/mL (≈ 0.235 µM) | MIC [3]: 0.03 µg/mL (≈ 0.0565 µM) | MIC ([4]; DSM11951, 48 h): 0.125 µg/mL (≈ 0.235 µM) | MIC ([4]; DSM11952, 48 h): 4 µg/mL (≈ 7.53 µM) | MIC ([4]; DSM11953, 48 h): 0.06 µg/mL (≈ 0.113 µM) | MIC ([5]; DSM11956, 48 h): 0.25 µg/mL (≈ 0.47 µM) | MIC ([5]; DSM11958, 48 h): 1 µg/mL (≈ 1.88 µM) | Cmax [6]: 12.3 µM | carcinogenicity [7]: non-carcinogenic

CC(=O)N1CCN(c2ccc(OC[C@@H]3CO[C@@](Cn4ccnc4)(c4ccc(Cl)cc4Cl)O3)cc2)CC1 [DIO-902, 2S,4R cis-1-acetyl-4-[4-[[2-(2,4-dichlorophenyl)-2-(1H-imidazol-1-ylmethyl)-1,3-dioxolan-4-yl]methoxyl]phenyl]piperazine]
Corticosteroid Levels (mean ± SEM) ([1]; single oral 50 mg/kg): 186 ± 14.9 ng/mL | Corticosteroid Levels (mean ± SEM) ([1]; single oral 100 mg/kg): 139 ± 10.9 ng/mL | Corticosteroid Levels (mean ± SEM), time course ([1]; single oral 200 mg/kg, 4 h): 98 ± 10 ng/mL | Corticosteroid Levels (mean ± SEM) ([1]; single oral 200 mg/kg): 100 ± 8.6 ng/mL | Corticosteroid Levels (mean ± SEM), time course ([1]; single oral 200 mg/kg, 8 h): 116 ± 13 ng/mL | Corticosteroid Levels (mean ± SEM), time course ([1]; single oral 200 mg/kg, 12 h): 113 ± 8 ng/mL | Corticosteroid Levels (mean ± SEM), time course ([1]; single oral 200 mg/kg, 16 h): 133 ± 17 ng/mL | Corticosteroid Levels (mean ± SEM), time course ([1]; single oral 200 mg/kg, 20 h): 136 ± 12 ng/mL | Corticosteroid Levels (mean ± SEM), time course ([1]; single oral 200 mg/kg, 24 h): 103 ± 14 ng/mL | Corticosteroid Levels (mean ± SEM) ([1]; single oral 400 mg/kg): 84 ± 11.6 ng/mL | Corticosteroid Levels (mean ± SEM) ([1]; single oral 600 mg/kg): 80 ± 7.8 ng/mL | MIC [2]: 0.06 µg/mL (≈ 0.113 µM) | MIC [3]: 0.03 µg/mL (≈ 0.0565 µM) | MIC ([4]; DSM11951, DSM strain 11951, 48 h, read-out: MIC): 0.06 µg/mL (≈ 0.113 µM) | MIC ([4]; DSM11952, DSM strain 11952, 48 h, read-out: MIC): 2 µg/mL (≈ 3.76 µM) | MIC ([4]; DSM11953, DSM strain 11953, 48 h, read-out: MIC): 0.06 µg/mL (≈ 0.113 µM) | MIC ([5]; DSM11956, DSM strain 11956, 48 h, read-out: MIC): 0.25 µg/mL (≈ 0.47 µM) | MIC ([5]; DSM11958, DSM strain 11958, 48 h, read-out: MIC): 1 µg/mL (≈ 1.88 µM) | clinical signs [8]: vomiting | reduction in total white cell numbers [9]: 20% | IC50 [10]: 1.3 µM | IC50 [11]: 84 µM | IC50 [12]: > 100 µM | genotoxicity, Ames assay [13]: negative | AUC 0-12 [14, 17]: 538 ± 74 µg·min/mL | Cmax [14, 17]: 1530 ± 190 ng/mL | T ½ [14, 17]: 3.62 ± 0.5 h | AUC 0-12 [14, 18]: 302 ± 38 µg·min/mL | Cmax [14, 18]: 1060 ± 130 ng/mL | T ½ [14, 18]: 2.22 ± 0.233 h | maximum plasma concentration [14, 19]: approximately 3.6 μg/mL | time of maximum plasma concentration [14, 19]: 2 h | genotoxicity, mouse lymphoma assay [15]: negative | total plasma concentration required to inhibit intrahepatic CYP7A [16]: 12 microM and approximately 6.3 microg/mL
